Measured values reported in patent US20240041840A1 (Areteia Therapeutics, Inc., priority 2020, published 2024).
Read-outs that look alike come from different tables or passages of the source.

System: subjects with eosinophilic asthma
Description: Pulmonary function is measured by performing a spirometry, which measures forced expiratory volume in is (FEV1), the volume of air moved in the first second of exhalation, this is a well-accepted measure of asthma. Forced vital capacity (FVC) is the total volume of air exhaled during the entire forced expiratory volume (FEV) test. The FEV1/FVC ratio is a calculated measure that may provide a more specific measure of bronchoconstriction, independent of processes such as air trapping. Pulmonary function testing can be tested pre-bronchodilator (after waiting a sufficient time so that all bronchodilator medications have cleared) or post-bronchodilator, typically 15-30 minutes after inhaling a short-acting bronchodilator, such as albuterol. Bronchodilator reversibility (BDR) is calculated and assessed by analyzing FEV1 pre- and post-bronchodilator, and calculating the change both as absolute (ml) and percentage change.
Evaluation of Efficacy: Blood eosinophil count, changes in pulmonary function (FEV1), Asthma Control Questionnaire (ACQ-6), Asthma Control Questionnaire (ACQ-7), Asthma Quality of Life Questionnaire (AQLQ), exhaled nitric oxide, pharyngeal and nasal eosinophil peroxidase were collected periodically during the study.
To control the alpha level for testing 3 dose groups versus placebo for the primary endpoint and for testing FEV1, a closed hierarchical testing procedure was used in the following order: 1. First, the 300 mg/day dose group was tested versus placebo for change in blood absolute eosinophil count, and if this reached the <0.05 level then, 2. the 150 mg/day dose group was tested versus placebo at the 0.05 level for change in blood absolute eosinophil count, and if this reached the <0.05 level then, 3. the pooled 150 and 300 mg/day dose groups were tested versus placebo at the 0.05 level for change in FEV1 at Week 12, then 4. the 75 mg/day dose group was tested versus placebo at the 0.05 level for change in blood absolute eosinophil count, and if this reached the <0.05 level.

[1] = 75 mg/day, Table 6D, timepoint printed as Analysis Baseline*
[2] = 75 mg/day, Table 6D, timepoint printed as Week 4
[3] = 150 mg/day, Table 6D, timepoint printed as Analysis Baseline*
[4] = 150 mg/day, Table 6D, timepoint printed as Week 4

## CCCN[C@@H]1CCc2nc(N)sc2C1 [dexpramipexole, (6R)-2-amino-4,5,6,7-tetrahydro-6-(propylamino) benzothiazole]
[1]
  Pre-Bronchodilator FEV1 % change, mean: 12.0%
  Pre-Bronchodilator FEV1 % change, median: 10.7%
  Pre-Bronchodilator FEV1 change, mean: 0.237 L
  Pre-Bronchodilator FEV1 change, median: 0.170 L
  Pre-Bronchodilator FEV1 observed, mean: 228 L
  Pre-Bronchodilator FEV1 observed, median: 2.24 L
[2]
  Pre-Bronchodilator FEV1 % change, mean: 9.27%
  Pre-Bronchodilator FEV1 % change, median: 5.48%
  Pre-Bronchodilator FEV1 change, mean: 0.207 L
  Pre-Bronchodilator FEV1 change, median: 0.115 L
  Pre-Bronchodilator FEV1 observed, mean: 2.24 L
  Pre-Bronchodilator FEV1 observed, median: 2.08 L
75 mg/day, Week 4
  FEV1 change from Baseline LSM: 0.150 L
  FEV1 difference versus Placebo LSM: 0.165 L
  Pre-Bronchodilator FEV1 % change, median: 4.85%
  Pre-Bronchodilator FEV1, % change from Baseline, mean: 6.25%
  Pre-Bronchodilator FEV1 change, mean: 0.130 L
  Pre-Bronchodilator FEV1 change, median: 0.0750 L
  Pre-Bronchodilator FEV1 observed, mean: 2.10 L
  Pre-Bronchodilator FEV1 observed, median: 2.10 L
  Pre-Bronchodilator Percent Predicted FEV1 % change, mean: 62.4%
  Pre-Bronchodilator Percent Predicted FEV1 % change, median: 4.85%
  Pre-Bronchodilator Percent Predicted FEV1 change, mean: 3.59%
  Pre-Bronchodilator Percent Predicted FEV1 change, median: 2.69%
  Pre-Bronchodilator Percent Predicted FEV1 observed, mean: 62.2%
  Pre-Bronchodilator Percent Predicted FEV1 observed, median: 64.4%
75 mg/day, Week 8
  FEV1 change from Baseline LSM: 0.204 L
  FEV1 difference versus Placebo LSM: 0.210 L
  Pre-Bronchodilator FEV1, % change from Baseline, mean: 12.0%
75 mg/day, Week 12
  FEV1 change from Baseline LSM: 0.168 L
  FEV1 difference versus Placebo LSM: 0.121 L
  Pre-Bronchodilator FEV1, % change from Baseline, mean: 9.27%
75 mg/day, Week 16 or Week 18
  FEV1 change from Baseline LSM: 0.295 L
  FEV1 difference versus Placebo LSM: 0.327 L
  Pre-Bronchodilator FEV1, % change from Baseline, mean: 17.6%
75 mg/day, Weeks 4, 8, 12, & 16/18 pooled
  ΔFEV1 vs Placebo LSM (SEM), pooled data: 206 mL
[3]
  Pre-Bronchodilator FEV1 % change, mean: 7.57%
  Pre-Bronchodilator FEV1 % change, median: 3.88%
  Pre-Bronchodilator FEV1 change, mean: 0.130 L
  Pre-Bronchodilator FEV1 change, median: 0.0900 L
  Pre-Bronchodilator FEV1 observed, mean: 2.21 L
  Pre-Bronchodilator FEV1 observed, median: 2.22 L
[4]
  Pre-Bronchodilator FEV1 % change, mean: 3.14%
  Pre-Bronchodilator FEV1 % change, median: −1.72%
  Pre-Bronchodilator FEV1 change, mean: 0.0414 L
  Pre-Bronchodilator FEV1 change, median: -0.0400 L
  Pre-Bronchodilator FEV1 observed, mean: 2.12 L
  Pre-Bronchodilator FEV1 observed, median: 2.11 L
150 mg/day, Week 4
  FEV1 change from Baseline LSM: 0.151 L
  FEV1 difference versus Placebo LSM: 0.166 L
  Pre-Bronchodilator FEV1 % change, median: 4.54%
  Pre-Bronchodilator FEV1, % change from Baseline, mean: 7.31%
  Pre-Bronchodilator FEV1 change, mean: 0.123 L
  Pre-Bronchodilator FEV1 change, median: 0.0800 L
  Pre-Bronchodilator FEV1 observed, mean: 2.15 L
  Pre-Bronchodilator FEV1 observed, median: 2.05 L
  Pre-Bronchodilator Percent Predicted FEV1 % change, mean: 7.31%
  Pre-Bronchodilator Percent Predicted FEV1 % change, median: 4.54%
  Pre-Bronchodilator Percent Predicted FEV1 change, mean: 3.95%
  Pre-Bronchodilator Percent Predicted FEV1 change, median: 2.85%
  Pre-Bronchodilator Percent Predicted FEV1 observed, mean: 67.4%
  Pre-Bronchodilator Percent Predicted FEV1 observed, median: 69.2%
150 mg/day, Week 8
  FEV1 change from Baseline LSM: 0.166 L
  FEV1 difference versus Placebo LSM: 0.173 L
  Pre-Bronchodilator FEV1, % change from Baseline, mean: 7.57%
150 mg/day, Week 12
  FEV1 change from Baseline LSM: 0.0601 L
  Pre-Bronchodilator FEV1, % change from Baseline, mean: 3.14%
150 mg/day, Week 16 or Week 18
  FEV1 difference versus Placebo LSM: 0.161 L
  Pre-Bronchodilator FEV1, % change from Baseline, mean: 7.71%
